Patent publication US10221144B2, “Antibacterial compounds having broad spectrum of activity” (priority 2014, dated 2019)
Where a name gives a salt, the structure may show the parent alone. Read-outs that look alike come from different tables or passages of the source.

Experiments:
Type in all cases: biochemical
S. aureus DNA gyrase = target: T1, S. aureus DNA gyrase (Staphylococcus aureus, UniProt P0A0K8+P20831); experiment: DNA gyrase supercoiling assay (S. aureus)
T1 construct: purchased Inspiralis, UK
Protocol: (§1) The above compounds were tested for the inhibition of the enzyme DNA gyrase in a gyrase supercoiling assay and for the inhibition of the enzyme topoisomerase IV in a decatenation assay, in both Gram positive and Gram negative bacteria, according to the following methods.
(§2) Both the assays were carried out according to a set-up method modified from the article to Blanche F, et al. “Differential Behaviors of Staphylococcus aureus and Escherichia coli Type II DNA Topoisomerases”, Antimicrob. Agents Chemother., 1996, Vol. 40, No. 12 p. 2714-2720.
(§3) The compounds were screened at single concentration (200, 100 or 50 μM), in duplicate.
(§4) Reagents from S. aureus and E. coli Gyrase Supercoiling Assay kits (Inspiralis, UK) were used. A master mix with a total volume sufficient for the number of reactions to perform was prepared with the following reagents: 5× assay buffer, relaxed pBR322 substrate (0.5 μg/reaction), RNase-DNase free water. Aliquotes of this mix were dispensed in each tube, then 10× compound stock solutions or vehicle control (DMSO), were added to each reaction tube.
(§5) Reaction was started with E. Coli (2 U/reaction) or S. aureus (1 U/reaction) gyrase enzyme addition.
(§6) A sample added with an equal volume of dilution buffer was used as negative control (without enzyme).
(§7) The reaction tubes were gentle vortexed and incubated 30 minutes at 37° C. Each reaction was stopped by adding 30 μl of Stop Buffer and 30 μl chloroform/isoamyl alcohol (24/1), briefly vortexed for 5-10 seconds and centrifuged at 20000×g for 2 minutes. Samples were loaded onto 1% agarose gel and subjected to electrophoresis for 1 hour at 80V constant voltage in TAE (40 mM Tris-acetate, 2 mM EDTA).
(§8) Data acquisition and analysis. Treatment of relaxed pBR322 with DNA gyrase converted the relaxed topoisomers (DNAs of different linking number) to the supercoiled form of the plasmid, which migrates faster on an agarose gel. An upper band might also be visible, which consists of open-circular (nicked) DNA which is present in the relaxed substrate but co-migrates with some of the relaxed topoisomers.
(§9) Bands were visualized by ethidium bromide staining (dilution 1:20000) for 30 minutes followed by destaining in distilled water for 10 minutes.
(§10) In order to evaluate the compounds activity on the enzyme, the bands of supercoiled DNAs in the gel were photographed by a digital imaging system ImageQuant LAS 4000 (GE Healthcare) according to manufacturer's instructions.
(§11) The fluorescent intensity of each band was analyzed by ImageQuant TL software and it was expressed as volume (volume of the uncalibrated quantity of material in the image feature after subtraction of the background intensity by using rolling ball method).
(§12) Each band intensity was compared, as percentage, to vehicle sample band intensity, which served as positive control, on the same gel.
(§13) Inhibitory activity was expressed as percent of inhibition versus the positive control.
(§14) The supercoiled or decatenated DNA bands obtained as described in Example 1 were analysed as follows.
(§15) Bands were analyzed by gel documentation equipment (Syngene, Cambridge, UK) and quantitated using Syngene Gene Tools software. Raw gel data (fluorescent band volumes) collected from Syngene, GeneTools gel analysis software were converted to a percentage of the 100% control (the fully supercoiled or decatenated DNA band). […] The IC50 data were calculated by using the global curve fit non-linear regression tool by selecting the Single, 2 Parameter fit function from the Exponential Decay equation category.

E. coli DNA gyrase = target: T2, E. coli DNA gyrase (Escherichia coli, UniProt P0AES4+P0AES6); experiment: DNA gyrase supercoiling assay (E. coli)
T2 construct: purchased Inspiralis, UK
Protocol: as §1, §2, §3, §4, §5, §6, §7, §8, §9, §10, §11, §12, §13, §14, §15

[1] = target: T3, S. aureus Topoisomerase IV (Staphylococcus aureus, UniProt P0C1S7+P0C1U9); experiment: Topoisomerase IV decatenation assay (S. aureus)
T3 construct: purchased Inspiralis, UK
Protocol: as §1, §2, §3
(§16) S. aureus and E. coli Topoisomerase IV decatenation kits (Inspiralis, UK) were used. A master mix with a total volume sufficient for the number of reactions to perform was prepared with the following reagents: 5× assay buffer (50 mM HEPES-KOH (pH 7.6), 100 mM potassium glutamate, 10 mM magnesium acetate, 10 mM DTT, 1 mM ATP, 50 μg/ml albumin), kDNA substrate (200 ng/reaction), RNase-DNase free water. Aliquots of this mix were dispensed in each tube, then 10× compound stock solutions or vehicle control (DMSO), were added in each reaction tube.
(§17) Reaction was started with Topoisomerase IV enzyme (0.5 U/reaction) addition.
as §6
(§18) The reaction tubes were gentle vortexed and incubated 30 minutes at 37° C. Each reaction was stopped by adding 30 μl of Stop Buffer and 30 μl of chloroform/isoamyl alcohol (24/1), briefly vortexed for 5-10 seconds and centrifuged at 20000×g for 2 minutes. Samples taken from the upper phase were loaded into 1% agarose gel and subjected to electrophoresis for 1 hour at 80V constant voltage in TAE (40 mM Tris-acetate, 2 mM EDTA).
(§19) Data acquisition and analysis. Due to the high molecular mass, kDNA could not enter an agarose gel under normal electrophoresis conditions, but remained in the wells. In the presence of Topo IV topoisomerase mini-circles (2.5 Kb) were released from kDNA by decatenation and were quickly and easily resolved in the gel at relatively high voltages.
(§20) Bands were visualized by ethidium bromide staining (dil 1:20000) for 30 minutes followed by destaining in distilled water for 10 minutes.
(§21) For single concentration screening assay, in order to evaluate the compounds activity on the enzymes, the bands of decatenated DNAs in the gel were photographed by a digital imaging system ImageQuant LAS 4000 (GE Healthcare) according to manufacturer's instructions.
as §11, §12, §13, §14, §15

E. coli Topoisomerase IV = target: T4, E. coli Topoisomerase IV (Escherichia coli, UniProt P0AFI2+P20083); experiment: Topoisomerase IV decatenation assay (E. coli)
T4 construct: purchased Inspiralis, UK
Protocol: as §1, §2, §3, §16, §17, §6, §18, §19, §20, §21, §11, §12, §13, §14, §15

[2] = S. aureus, conc. 50 μM, n/a = not active
[3] = E. coli, conc. 50 μM, n/a = not active
[4] = S. aureus, conc. 50 μM, n/a = not active, read-out: % inhibition Topo IV
[5] = S. aureus, concentration-response curve, eight half-log concentrations 0.1 to 300 μM, read-out: IC50 Topo IV
[6] = E. coli, conc. 50 μM, n/a = not active, read-out: % inhibition Topo IV

T3 sequence (P0C1S7 whole entry): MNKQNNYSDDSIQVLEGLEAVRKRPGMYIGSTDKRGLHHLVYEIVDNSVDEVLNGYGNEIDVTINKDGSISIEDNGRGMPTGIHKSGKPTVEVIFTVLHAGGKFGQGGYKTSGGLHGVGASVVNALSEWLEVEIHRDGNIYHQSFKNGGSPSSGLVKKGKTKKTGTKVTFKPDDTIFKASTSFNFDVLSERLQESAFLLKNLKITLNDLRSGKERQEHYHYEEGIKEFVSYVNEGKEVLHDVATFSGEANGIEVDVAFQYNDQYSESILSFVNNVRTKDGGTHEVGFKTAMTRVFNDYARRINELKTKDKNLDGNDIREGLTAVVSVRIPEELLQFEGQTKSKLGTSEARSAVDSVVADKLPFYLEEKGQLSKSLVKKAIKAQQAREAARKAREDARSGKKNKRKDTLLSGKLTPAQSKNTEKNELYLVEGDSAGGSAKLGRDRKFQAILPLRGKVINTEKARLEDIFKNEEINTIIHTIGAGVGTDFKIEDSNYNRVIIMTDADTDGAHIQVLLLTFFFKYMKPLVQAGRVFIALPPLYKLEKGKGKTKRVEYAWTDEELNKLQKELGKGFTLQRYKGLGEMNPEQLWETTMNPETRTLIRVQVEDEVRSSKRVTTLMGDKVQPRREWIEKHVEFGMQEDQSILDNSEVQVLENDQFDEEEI
T3 sequence (P0C1U9 whole entry): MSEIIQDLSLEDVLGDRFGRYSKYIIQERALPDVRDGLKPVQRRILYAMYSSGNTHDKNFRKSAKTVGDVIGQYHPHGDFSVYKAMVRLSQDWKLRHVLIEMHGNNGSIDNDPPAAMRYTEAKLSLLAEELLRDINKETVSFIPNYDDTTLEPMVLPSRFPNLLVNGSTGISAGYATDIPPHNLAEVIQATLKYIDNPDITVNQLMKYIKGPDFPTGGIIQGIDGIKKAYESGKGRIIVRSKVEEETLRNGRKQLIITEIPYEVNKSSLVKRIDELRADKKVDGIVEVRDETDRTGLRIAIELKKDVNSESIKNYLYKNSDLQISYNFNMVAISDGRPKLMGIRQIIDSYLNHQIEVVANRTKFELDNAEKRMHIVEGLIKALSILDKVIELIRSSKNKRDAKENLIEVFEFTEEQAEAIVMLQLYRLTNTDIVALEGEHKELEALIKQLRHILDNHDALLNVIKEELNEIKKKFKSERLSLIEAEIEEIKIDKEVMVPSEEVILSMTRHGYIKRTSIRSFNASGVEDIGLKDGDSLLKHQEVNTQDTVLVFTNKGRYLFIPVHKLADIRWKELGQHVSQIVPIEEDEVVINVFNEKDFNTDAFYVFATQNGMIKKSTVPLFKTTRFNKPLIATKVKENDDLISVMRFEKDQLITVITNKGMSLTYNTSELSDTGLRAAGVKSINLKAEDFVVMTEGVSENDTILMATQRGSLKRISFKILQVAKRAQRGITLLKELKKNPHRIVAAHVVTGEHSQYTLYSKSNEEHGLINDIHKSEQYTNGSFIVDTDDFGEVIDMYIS
T1 sequence (P0A0K8 whole entry): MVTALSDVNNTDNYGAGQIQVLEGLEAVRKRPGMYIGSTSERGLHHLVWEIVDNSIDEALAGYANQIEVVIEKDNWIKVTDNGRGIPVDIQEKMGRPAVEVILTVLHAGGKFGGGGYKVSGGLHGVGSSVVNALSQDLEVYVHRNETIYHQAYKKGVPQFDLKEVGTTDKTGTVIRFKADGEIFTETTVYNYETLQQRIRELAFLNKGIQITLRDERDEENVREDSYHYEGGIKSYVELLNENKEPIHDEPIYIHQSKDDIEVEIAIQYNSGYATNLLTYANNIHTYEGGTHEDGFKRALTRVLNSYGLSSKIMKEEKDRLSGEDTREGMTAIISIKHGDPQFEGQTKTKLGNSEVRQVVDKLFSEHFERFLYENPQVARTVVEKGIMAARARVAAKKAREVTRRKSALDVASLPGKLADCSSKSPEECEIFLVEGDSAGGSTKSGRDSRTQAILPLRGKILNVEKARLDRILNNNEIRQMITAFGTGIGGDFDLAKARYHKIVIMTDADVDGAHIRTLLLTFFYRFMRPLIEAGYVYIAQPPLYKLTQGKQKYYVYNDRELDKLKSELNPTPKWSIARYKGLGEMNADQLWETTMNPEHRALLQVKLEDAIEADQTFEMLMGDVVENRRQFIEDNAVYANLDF
T1 sequence (P20831 whole entry): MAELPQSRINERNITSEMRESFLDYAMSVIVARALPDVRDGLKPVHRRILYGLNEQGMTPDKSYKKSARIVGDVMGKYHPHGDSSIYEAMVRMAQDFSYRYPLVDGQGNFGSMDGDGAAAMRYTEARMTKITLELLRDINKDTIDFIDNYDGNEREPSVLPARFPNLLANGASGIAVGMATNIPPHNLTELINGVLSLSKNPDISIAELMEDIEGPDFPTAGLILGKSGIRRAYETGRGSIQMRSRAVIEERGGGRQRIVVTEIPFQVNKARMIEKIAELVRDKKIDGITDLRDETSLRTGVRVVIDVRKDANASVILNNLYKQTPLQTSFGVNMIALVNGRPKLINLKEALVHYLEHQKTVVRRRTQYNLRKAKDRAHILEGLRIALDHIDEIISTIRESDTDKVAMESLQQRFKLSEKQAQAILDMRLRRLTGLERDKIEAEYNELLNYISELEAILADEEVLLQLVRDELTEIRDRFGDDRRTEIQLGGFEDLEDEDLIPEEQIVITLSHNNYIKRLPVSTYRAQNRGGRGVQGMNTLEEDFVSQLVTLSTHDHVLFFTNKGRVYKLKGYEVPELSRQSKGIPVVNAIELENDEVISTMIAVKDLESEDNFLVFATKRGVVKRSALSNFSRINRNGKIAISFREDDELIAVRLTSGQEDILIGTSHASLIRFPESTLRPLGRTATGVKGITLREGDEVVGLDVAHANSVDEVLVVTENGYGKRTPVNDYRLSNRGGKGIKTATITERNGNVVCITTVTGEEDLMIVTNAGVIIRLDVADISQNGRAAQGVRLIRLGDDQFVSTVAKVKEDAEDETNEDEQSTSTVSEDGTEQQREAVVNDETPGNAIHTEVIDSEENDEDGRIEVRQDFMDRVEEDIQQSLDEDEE
T4 sequence (P20083 whole entry): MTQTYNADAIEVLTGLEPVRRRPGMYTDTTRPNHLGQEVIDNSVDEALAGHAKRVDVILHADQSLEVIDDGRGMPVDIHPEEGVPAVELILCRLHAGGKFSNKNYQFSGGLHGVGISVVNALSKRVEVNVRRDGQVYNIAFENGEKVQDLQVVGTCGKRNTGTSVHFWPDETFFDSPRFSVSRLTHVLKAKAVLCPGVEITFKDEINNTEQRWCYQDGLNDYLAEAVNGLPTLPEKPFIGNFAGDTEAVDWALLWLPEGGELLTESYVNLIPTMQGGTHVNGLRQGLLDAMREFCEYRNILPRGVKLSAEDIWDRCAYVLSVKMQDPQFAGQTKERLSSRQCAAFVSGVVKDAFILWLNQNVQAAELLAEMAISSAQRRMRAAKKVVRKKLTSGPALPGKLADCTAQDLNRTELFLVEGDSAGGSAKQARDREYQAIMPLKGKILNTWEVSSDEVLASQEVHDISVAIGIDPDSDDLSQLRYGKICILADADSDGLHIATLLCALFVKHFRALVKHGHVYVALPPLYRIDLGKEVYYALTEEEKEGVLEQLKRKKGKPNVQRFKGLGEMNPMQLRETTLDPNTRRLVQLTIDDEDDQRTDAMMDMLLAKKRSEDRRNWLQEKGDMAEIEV
T4 sequence (P0AFI2 whole entry): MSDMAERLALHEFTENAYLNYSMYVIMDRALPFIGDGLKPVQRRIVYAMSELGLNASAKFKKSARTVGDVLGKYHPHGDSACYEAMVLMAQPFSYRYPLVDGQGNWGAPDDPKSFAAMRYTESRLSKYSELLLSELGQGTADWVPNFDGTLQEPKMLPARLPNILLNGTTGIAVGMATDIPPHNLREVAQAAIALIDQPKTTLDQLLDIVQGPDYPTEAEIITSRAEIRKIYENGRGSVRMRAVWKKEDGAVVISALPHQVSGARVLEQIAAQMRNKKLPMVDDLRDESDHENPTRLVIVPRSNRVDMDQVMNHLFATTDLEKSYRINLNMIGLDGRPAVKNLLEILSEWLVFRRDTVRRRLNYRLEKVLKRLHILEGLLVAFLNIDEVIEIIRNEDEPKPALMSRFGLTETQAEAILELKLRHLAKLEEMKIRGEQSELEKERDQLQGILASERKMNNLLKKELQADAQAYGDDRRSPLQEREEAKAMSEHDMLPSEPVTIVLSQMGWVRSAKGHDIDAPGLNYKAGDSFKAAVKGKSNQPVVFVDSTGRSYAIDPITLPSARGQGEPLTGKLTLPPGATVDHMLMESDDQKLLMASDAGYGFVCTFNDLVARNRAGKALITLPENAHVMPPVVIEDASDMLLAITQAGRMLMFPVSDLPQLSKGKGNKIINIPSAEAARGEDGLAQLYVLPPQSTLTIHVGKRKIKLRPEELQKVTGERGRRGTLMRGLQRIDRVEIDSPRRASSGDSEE

Molecule	IC50 (S. aureus DNA gyrase) [nM]	inhibition at 50 µM (S. aureus DNA gyrase; [2]) [%]	IC50 (E. coli DNA gyrase) [nM]	inhibition at 50 µM (E. coli DNA gyrase; [3]) [%]	inhibition at 50 µM [1, 4] [%]	IC50 [1, 5] [nM]	IC50 (E. coli Topoisomerase IV) [nM]	inhibition at 50 µM (E. coli Topoisomerase IV; [6]) [%]	also measured
O=c1nc(NCC(O)CN2CCN(c3nccc4ncc(F)cc34)CC2)c2cc(F)ccc2o1 (stereo not drawn) [Compound 162, 6-fluoro-4-({3-[4-(3-fluoro-1,6-naphthyridin-5-yl)piperazin-1-yl]-2-hydroxypropyl}amino)-2H-1,3-benzoxazin-2-one]	880	100	4850	95	100	310	950	100	
O=c1cc(NCCCN2CCN(c3nccc4ccc(F)cc34)CC2)c2ccccc2o1 [Compound 67, 4-({3-[4-(7-fluoroisoquinolin-1-yl)piperazin-1-yl]propyl}amino)chromen-2-one]	2800		800				1700		inhibition at 100 µM (S. aureus DNA gyrase; S. aureus, conc. 100 μM, n/a = not active): 97%; inhibition at 100 µM (E. coli DNA gyrase; E. coli, conc. 100 μM, n/a = not active): 89%; IC50 [1]: 11800 nM; inhibition at 100 µM ([1]; S. aureus, conc. 100 μM, n/a = not active, read-out: % inhibition Topo IV): 100%; inhibition at 100 µM (E. coli Topoisomerase IV; E. coli, conc. 100 μM, n/a = not active, read-out: % inhibition Topo IV): 100%
O=CNC(CN1CCN(c2nccc3ccc(F)cc23)CC1)c1nc2c(=O)oc3ccccc3c2[nH]1 (stereo not drawn) [Compound 159, N-{2-[4-(7-fluoroisoquinolin-1-yl)piperazin-1-yl]-1-(4-oxo-1,4-dihydro[1]benzopyrano[3,4-d]imidazol-2-yl)ethyl}formamide hydrochloride]	510	100	1650	94		1090	1040	98	inhibition at 50 µM ([1]; read-out: % inhibition Topo IV): 100%
7-methoxy-1-chloroisoquinoline [Compound 88]						6700			% inhibition DNA gyrase (S. aureus DNA gyrase; [2]): 100%; IC50 (S. aureus DNA gyrase; S. aureus, concentration-response curve, eight half-log concentrations 0.1 to 300 μM, read-out: IC50 DNA gyrase): 1100 nM; % inhibition DNA gyrase (E. coli DNA gyrase; [3]): 100%; IC50 (E. coli DNA gyrase; E. coli, concentration-response curve, eight half-log concentrations 0.1 to 300 μM, read-out: IC50 DNA gyrase): 3200 nM; % inhibition Topo IV [1, 2]: 88%; % inhibition Topo IV (E. coli Topoisomerase IV; [3]): 100%; IC50 (E. coli Topoisomerase IV; E. coli, concentration-response curve, eight half-log concentrations 0.1 to 300 μM, read-out: IC50 Topo IV): 900 nM
O=c1oc2ccccc2c2[nH]c(C(O)CN3CCN(c4nccc5ccc(F)cc45)CC3)nc12 (stereo not drawn) [Compound 152, 2-{2-[4-(7-fluoroisoquinolin-1-yl)piperazin-1-yl]-1-hydroxyethyl}[1]benzopyrano[3,4-d]imidazol-4(1H)-one hydrochloride]	310	100	660	88		530	850	100	inhibition at 50 µM ([1]; read-out: % inhibition Topo IV): 88%
O=c1oc2ccccc2c2[nH]c(CNC3CCN(c4nccc5ccc(F)cc45)CC3O)cc12 (stereo not drawn) [Compound 186, 2-({[1-(7-fluoroisoquinolin-1-yl)-3-hydroxypiperidin-4-yl]amino}methyl)[1]benzopyrano[4,3-b]pyrrol-4(1H)-one]		100		70	87			54	
O=c1nc(NCC(O)CN2CCN(c3nccc4ccc(F)cc34)CC2)c2cc(F)ccc2o1 (stereo not drawn) [Compound 148, 6-fluoro-4-({3-[4-(7-fluoroisoquinolin-1-yl)piperazin-1-yl]-2-hydroxypropyl}amino)-2H-1,3-benzoxazin-2-one]	24	100	420	96	100	50	120	100	
COC1CN(c2nccc3ccc(F)cc23)CCC1NCc1cc2c(=O)oc3ccccc3c2[nH]1 (stereo not drawn) [Compound 171, 2-({[1-(7-fluoroisoquinolin-1-yl)-3-methoxypiperidin-4-yl]amino}methyl)[1]benzopyrano[4,3-b]pyrrol-4(1H)-one]		100		93	72			97	
O=c1nc(NCC(O)CN2CCN(c3nc(F)cc4ccc(F)cc34)CC2)c2cc(F)ccc2o1 (stereo not drawn) [Compound 149, 4-({3-[4-(3,7-difluoroisoquinolin-1-yl)piperazin-1-yl]-2-hydroxypropyl}amino)-6-fluoro-2H-1,3-benzoxazin-2-one]	18	100	100	90	100	40	140	90	
COc1ccc2ncc(F)c(N3CCC(NCc4cc5c([nH]4)c(=O)oc4ccc(F)cc45)CC3)c2n1 [Compound 192, 8-fluoro-2-({[1-(3-fluoro-6-methoxy-1,5-naphthyridin-4-yl)piperidin-4-yl]amino}methyl)[1]benzopyrano[3,4-b]pyrrol-4(3H)-one]	17	88	80	70	76		130	37	IC50 [1]: 100 nM
COc1ccc2nccc(N3CCC(NCc4cc5c([nH]4)c(=O)oc4ccc(F)cc45)CC3)c2n1 [Compound 188, 8-fluoro-2-({[1-(6-methoxy-1,5-naphthyridin-4-yl)piperidin-4-yl]amino}methyl)[1]benzopyrano[3,4-b]pyrrol-4(3H)-one]	15	97	90	100	98		300	92	IC50 [1]: 200 nM
O=c1nc(NCC(O)CN2CCN(c3nc(F)cc4ccc(OC(F)(F)F)cc34)CC2)c2cc(F)ccc2o1 (stereo not drawn) [Compound 155, 6-fluoro-4-[(3-{4-[3-fluoro-7-(trifluoromethoxy)isoquinolin-1-yl]piperazin-1-yl}-2-hydroxypropyl)amino]-2H-1,3-benzoxazin-2-one]	8740	50	6310	60	50	7210		0	
